Consider 25 compounds from patent US8476302B2, “α-ketoamide derivatives useful endothelial lipase inhibitors” (Janssen Pharmaceutica N.V., priority 2010, dated 2013).

Where “and” joins values, the source holds several entries; their conditions need not be identical. Identical values can stand only once.

For experiment [1], the target named is T1, human endothelial lipase (EL) (Homo sapiens, UniProt Q9Y5X9).
T1 construct: host or cells: cells expressing human endothelial lipase
T1 sequence (Q9Y5X9 21-500): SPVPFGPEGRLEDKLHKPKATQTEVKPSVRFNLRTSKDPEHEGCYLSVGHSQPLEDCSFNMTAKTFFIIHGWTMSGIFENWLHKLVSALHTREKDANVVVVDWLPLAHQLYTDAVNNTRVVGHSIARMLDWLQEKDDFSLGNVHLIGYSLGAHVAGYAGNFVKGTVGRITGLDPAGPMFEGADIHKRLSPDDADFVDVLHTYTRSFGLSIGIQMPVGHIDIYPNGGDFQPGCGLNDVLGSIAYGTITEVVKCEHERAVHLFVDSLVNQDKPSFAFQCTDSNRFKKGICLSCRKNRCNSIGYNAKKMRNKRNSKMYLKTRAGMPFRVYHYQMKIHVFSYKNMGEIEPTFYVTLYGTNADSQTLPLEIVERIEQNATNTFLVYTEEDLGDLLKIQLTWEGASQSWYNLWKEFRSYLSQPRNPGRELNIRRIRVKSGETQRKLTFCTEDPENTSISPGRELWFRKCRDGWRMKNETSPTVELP
Briefly: Endothelial Lipase Assay, cell surface lipase activity (human). It is filed as cell-based. The following applies: cells expressing human EL, PLA1 substrate 10 μM, fluorescence reaction rate; several values in a cell are repeat determinations. In outline:
(§1)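 Cells expressing human or mouse EL, plated 2000 cells/well in serum-free medium for 18-24 h at 37° C, then given PLA1 substrate (10 μM final) in HBSS/25 mM HEPES pH 7.2. Fluorescence (ex 490/em 515 nm) read kinetically for 30 min at 37° C; IC50 from slopes of linear regression over 480-1500 s.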

Experiment [2] has as its target T2, Mouse EL (Mus musculus, UniProt Q9WVG5).
T2 construct: host or cells: not described for mouse EL
T2 sequence (Q9WVG5 21-500): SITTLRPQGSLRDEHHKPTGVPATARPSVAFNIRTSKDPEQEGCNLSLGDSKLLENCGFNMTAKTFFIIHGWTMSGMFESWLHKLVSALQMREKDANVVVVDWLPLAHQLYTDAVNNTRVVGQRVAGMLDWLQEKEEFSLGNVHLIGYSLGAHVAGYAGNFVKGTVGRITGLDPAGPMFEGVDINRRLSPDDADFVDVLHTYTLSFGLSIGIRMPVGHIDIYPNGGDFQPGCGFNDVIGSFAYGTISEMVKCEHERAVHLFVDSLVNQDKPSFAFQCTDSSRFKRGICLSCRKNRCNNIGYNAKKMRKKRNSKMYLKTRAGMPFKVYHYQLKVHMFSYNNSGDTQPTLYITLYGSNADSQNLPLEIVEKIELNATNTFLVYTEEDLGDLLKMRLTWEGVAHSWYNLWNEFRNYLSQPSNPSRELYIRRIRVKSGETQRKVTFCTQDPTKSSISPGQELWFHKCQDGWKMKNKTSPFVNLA
Nature of the experiment: Endothelial Lipase Assay, cell surface lipase activity (mouse). It is filed as cell-based. The settings on record: PLA1 substrate 10 μM, fluorescence reaction rate, several values in a cell are repeat determinations. Summed up: as §1

`O=C(CCCCCCc1ccccc1)C(=O)NCc1nnc(-c2ccc(OCc3cc(F)cc(F)c3)cc2)s1` [Compound 146]: the results for the IC50 in experiment [1] and in experiment [2] were 2.32 µM and 0.224 µM, respectively.
On to `O=C(CCCCCNc1ncccn1)C(=O)NCc1nnc(-c2ccccc2)o1` [Compound 148], for which the IC50 in experiment [1] turned out to be 12.3 µM; in experiment [2], 14.7 µM.
Consider `CN(C)CCNC(=O)c1ccc(-c2nnc(CNC(=O)C(=O)CCCCCCc3ccccc3)o2)cc1` [Compound 149], for which the IC50 in experiment [1] came to 4.25 µM; in experiment [2] it was 3.4 µM.
In the same order, the values of `CN(C)C(=O)c1cccc(COc2ccc(-c3nnc(CNC(=O)C(=O)CCCCCCc4ccccc4)s3)cc2)c1` [Compound 150] are 0.092 µM and 0.048 µM.
Take `O=C(CCCCCCc1ccccc1)C(=O)NCc1nnc(-c2ccc(OCc3cccc(F)n3)cc2)s1` [Compound 151]: the IC50 in experiment [1] was 0.712 µM; in experiment [2] it was 0.661 µM.
On to `O=C(CCCCCCc1ccccc1)C(=O)NCc1nnc(-c2ccc(OCc3ccnc(F)c3)cc2)s1` [Compound 152], for which the IC50 was 0.115 µM and 0.042 µM in experiment [1]; 0.207 µM and 0.048 µM in experiment [2].
With `Cc1ncsc1CCCCCCC(=O)C(=O)NCc1nnc(-c2ccc(OCc3cccc(F)c3)cc2)s1` [Compound 154, N-((5-(4-((3-fluorobenzyl)oxy)phenyl)-1,3,4-thiadiazol-2-yl)methyl)-8-(4-methylthiazol-5-yl)-2-oxooctanamide], the IC50 was determined as 0.036 µM in experiment [1] and 0.047 µM in experiment [2].
Take `O=C(CCCCCCc1ccccc1)C(=O)NCc1nnc(-c2ccc(OCc3cc[n+]([O-])cc3)cc2)s1` [Compound 156]: the half-maximal inhibitory concentration (IC50) worked out at 0.397 µM in experiment [1] and 0.383 µM in experiment [2].
For `CC(=O)Nc1ccc(CCCCCCC(=O)C(=O)NCc2nnc(-c3ccc(OCc4cccc(F)c4)cc3)s2)cn1` [Compound 157] the same measures were 0.511 µM and 1.28 µM.
In the case of `O=C(CCCCCCc1ccc(F)nc1)C(=O)NCc1nnc(-c2ccc(OCc3ccncc3)cc2)s1` [Compound 159], the IC50 in experiment [1] turned out to be 0.24 µM; in experiment [2], 0.174 µM.
For `O=C(CCCCCCc1ccccc1)C(=O)NCc1nnc(-c2ccc(OCc3ccncc3F)cc2)s1` [Compound 161] the same measures were 0.093 µM and 0.037 µM.
For `O=C(CCCCCCc1ccccc1)C(=O)NCc1nnc(-c2ccc(OCc3cccc(Br)n3)cc2)s1` [Compound 162] the same measures were 1.34 µM and 0.202 µM.
For `N#Cc1cccc(COc2ccc(-c3nnc(CNC(=O)C(=O)CCCCCCc4ccccc4)s3)cc2)n1` [Compound 163] the same measures were 0.974 µM and 0.236 µM.
Take `O=C(CCCCCCc1ccccc1)C(=O)NCc1nnc(-c2ccc(OCc3cccc(Cl)n3)cc2)s1` [Compound 164]: the IC50 amounted to 0.751 µM in experiment [1] and 0.232 µM in experiment [2].
In the same order, the values of `O=C(CCCCCCc1ccc(F)nc1)C(=O)NCc1nnc(-c2ccc(OCc3cccc(F)c3)cc2)s1` [Compound 165] are 0.048 µM and 0.048 µM.
For `Cc1ncsc1CCCCCCC(=O)C(=O)NCc1nnc(-c2ccc(OCc3ccncc3)cc2)s1` [Compound 166] the same measures were 0.809 µM and 0.479 µM.
Turning to `O=C(CCCCCCc1ccc(F)nc1)C(=O)NCc1nnc(-c2ccc(OCc3ccccn3)cc2)s1` [Compound 167], the IC50 in experiment [1] is 0.36 µM; in experiment [2], 0.217 µM.
For `O=C(CCCCCCc1ccc(F)nc1)C(=O)NCc1nnc(-c2ccc(OCc3ccnc(F)c3)cc2)s1` [Compound 168] the same measures were 0.107 µM and 0.064 µM.
In the same order, the values of `O=C(CCCCCCc1ccc(F)nc1)C(=O)NCc1nnc(-c2ccc(OCc3ccnc(Cl)c3)cc2)s1` [Compound 169] are 0.085 µM and 0.062 µM.
In the case of `COC(=O)c1cccc(COc2ccc(-c3nnc(CNC(=O)C(=O)CCCCCCc4ccc(F)nc4)s3)cc2)c1` [Compound 170], the values for the IC50 in experiment [1] and in experiment [2] were 0.016 µM and 0.014 µM, respectively.
In the same order, the values of `O=C(CCCCCCc1ccccc1)C(=O)NCc1nnc(-c2ccc(OCc3ccnc(Cl)c3)cc2)s1` [Compound 173] are 0.037 µM and 0.017 µM.
As for `Cc1cc(COc2ccc(-c3nnc(CNC(=O)C(=O)CCCCCCc4ccccc4)s3)cc2)ccn1` [Compound 174], the IC50 was determined as 0.078 µM in experiment [1] and 0.051 µM in experiment [2].
In the same order, the values of `O=C(CCCCCNc1ncccn1)C(=O)NCc1nnc(-c2ccc(OCc3ccccc3)cc2)o1` [Compound 176] are 27.9 µM and 27 µM.
Consider `O=C(CCCCCCc1ccccc1)C(=O)NCc1nnc(-c2ccncc2)o1` [Compound 178], for which the results for the IC50 in experiment [1] and in experiment [2] were 11.6 µM and 7.32 µM, respectively.
In the same order, the values of `O=C(CCCCCCc1ccccc1)C(=O)NCc1nnc(-c2ccc(Oc3ccccc3)cc2)o1` [Compound 179] are 0.247 µM and 0.135 µM.

In general, IC50 refers to the concentration that gives 50% inhibition.
